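Step 1: Grow cells in 96-well plates. Step 2: Expose to compound for 48 hours at 5 concentrations. Step 3: Interpolate endpoints linearly; if unreached, use highest concentration. TGI: total growth inhibition.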
Columns and labels:
Experiment in all cases: NCI-60 cell line screen, 48 h
[1] = tested on: NCI-H460 lung
[2] = tested on: HL-60(TB) leukemia
[3] = tested on: M14 melanoma
[4] = tested on: NCI-H522 lung
[5] = tested on: K-562 leukemia
[6] = tested on: SK-MEL-2 melanoma
[7] = tested on: SK-MEL-5 melanoma
[8] = tested on: UACC-257 melanoma
[9] = tested on: SF-539 CNS
[10] = tested on: A498 renal

Row | Compound | TGI [1] [µM] | TGI [2] [µM] | TGI [3] [µM] | TGI [4] [µM] | TGI [5] [µM] | TGI [6] [µM] | TGI [7] [µM] | TGI [8] [µM] | TGI [9] [µM] | TGI [10] [µM]
1 | Fc1ccccc1C1SCc2nc3cc4ccccc4cc3n21 (stereo not drawn) | > 100 | > 100 | > 100 | > 100 | > 100 | > 100 | > 100 | > 100 | – | –
2 | O=c1onc2c3ccccc3ncn12 | – | – | > 100 | > 100 | > 100 | > 100 | > 100 | > 100 | > 100 | > 100
3 | Cc1n[nH]c(=O)n1/N=C/c1ccc([N+](=O)[O-])o1 | 49.4 | – | 26.6 | – | > 100 | > 53.8 | 12.1 | 27.7 | 37.1 | 47.6
4 | O=C(O)CNC(=O)c1c2ccccc2nc2ccccc12 | > 100 | – | > 100 | > 100 | > 100 | > 100 | > 100 | > 100 | > 100 | > 100
5 | CC(C)[C@@H]1ON1C(C)c1ccccc1 (stereo partly drawn) | > 100 | > 100 | > 100 | > 100 | > 100 | – | > 100 | > 100 | > 100 | > 100
6 | CCNC1=C(NC(=O)CC)C(=O)c2ccccc2C1=O | > 100 | > 100 | 98.5 | > 100 | > 100 | – | > 100 | > 100 | > 100 | –
7 | CN(CCCNC(=O)c1nn(-c2ccc(Cl)cc2Cl)c2c1Cc1ccccc1-2)CCCNC(=O)c1nn(-c2ccc(Cl)cc2Cl)c2c1Cc1ccccc1-2 | 3.19 | 3.14 | 3.47 | 2.9 | 2.97 | 3.2 | 3.05 | 3.35 | – | 3.13
8 | O=C(CC(=O)Nc1ccccc1)N/N=C/c1cc(N=Nc2ccc(Br)cc2)ccc1O | > 10 | 6 | > 10 | – | > 10 | – | > 10 | 7.71 | > 10 | –
9 | O=C(CSC1=NCCN1)Nc1ccccc1 | > 100 | – | > 100 | 38.7 | > 100 | 44.5 | – | 40.2 | – | > 100
10 | COc1ccc(N=C2C(=Nc3ccc(OC)cc3)N(c3ccccc3)C(=S)N2N=C=C2Sc3ccccc3N2C)cc1 | > 100 | – | > 100 | > 100 | > 100 | > 100 | > 100 | > 100 | > 100 | –
11 | COC(=O)C1=C(OC(=O)c2ccccc2)C(C(=O)OC)[C@]2(O)[C@@H](C(=O)OC)[C@H]1C[C@@H](c1ccccc1)[C@@H]2C(=O)OC (stereo partly drawn) | 42.4 | 21.1 | 9.57 | – | 18 | 13.9 | 17.4 | 84.6 | 14.6 | 64.1
12 | CC1(O)OC(=O)C2=C1CCC1C2CCC2(C)C(O)CCC12 (stereo not drawn) | > 100 | > 100 | > 100 | > 100 | > 100 | – | > 100 | > 100 | > 100 | > 100
13 | CC(C)(C)OC(=O)NCCC1CN(C(=O)c2ccccc2)c2ccccc21 (stereo not drawn) | 56.3 | – | 33.6 | 64.2 | > 100 | 91.2 | 32 | 75.2 | – | > 100
14 | O=C(/C=C/c1csc(-c2ccccc2)n1)NCc1ccc(C(=O)NCc2ccccc2)cc1 | > 100 | – | > 100 | > 100 | > 100 | > 100 | > 100 | > 100 | > 100 | > 100
15 | Nc1ccc(C(=O)NN2C(=O)C(Cl)C2c2ccccc2)cc1 (stereo not drawn) | > 100 | – | > 100 | > 100 | > 100 | > 100 | > 100 | > 100 | > 100 | > 100
16 | CCN(CC)Cc1sc2nc3ccccc3n2c1-c1ccc(OC)cc1 | – | > 100 | > 100 | > 100 | 22.7 | > 100 | – | > 100 | – | 71.6
17 | COc1ccc(CSc2ccccc2Cn2cccc2)cc1OC | > 100 | > 100 | – | – | > 100 | – | > 100 | > 100 | > 100 | > 100
18 | CC(C)=C/C=C1/CS(=O)(=O)C=C1C | – | > 100 | > 100 | > 100 | > 100 | > 100 | > 100 | > 100 | > 100 | > 100
